Activity calls are given as the source filed them. The calls are words filed in the database; no cut-off is given here.
Legend:
Format in all cases: cell-based
[1] = biological target: T1, Glucocorticoid receptor (Rattus norvegicus) (UniProt P06536); assay: Binding affinity to enhanced YFP tagged rat glucocorticoid receptor (497-795)-LBD expressed in Saccharomyces cerevisiae FY250 cells by measuring fluorescence changes incubated for 15 hrs by fluorescence spectroscopy
T1 sequence (whole entry): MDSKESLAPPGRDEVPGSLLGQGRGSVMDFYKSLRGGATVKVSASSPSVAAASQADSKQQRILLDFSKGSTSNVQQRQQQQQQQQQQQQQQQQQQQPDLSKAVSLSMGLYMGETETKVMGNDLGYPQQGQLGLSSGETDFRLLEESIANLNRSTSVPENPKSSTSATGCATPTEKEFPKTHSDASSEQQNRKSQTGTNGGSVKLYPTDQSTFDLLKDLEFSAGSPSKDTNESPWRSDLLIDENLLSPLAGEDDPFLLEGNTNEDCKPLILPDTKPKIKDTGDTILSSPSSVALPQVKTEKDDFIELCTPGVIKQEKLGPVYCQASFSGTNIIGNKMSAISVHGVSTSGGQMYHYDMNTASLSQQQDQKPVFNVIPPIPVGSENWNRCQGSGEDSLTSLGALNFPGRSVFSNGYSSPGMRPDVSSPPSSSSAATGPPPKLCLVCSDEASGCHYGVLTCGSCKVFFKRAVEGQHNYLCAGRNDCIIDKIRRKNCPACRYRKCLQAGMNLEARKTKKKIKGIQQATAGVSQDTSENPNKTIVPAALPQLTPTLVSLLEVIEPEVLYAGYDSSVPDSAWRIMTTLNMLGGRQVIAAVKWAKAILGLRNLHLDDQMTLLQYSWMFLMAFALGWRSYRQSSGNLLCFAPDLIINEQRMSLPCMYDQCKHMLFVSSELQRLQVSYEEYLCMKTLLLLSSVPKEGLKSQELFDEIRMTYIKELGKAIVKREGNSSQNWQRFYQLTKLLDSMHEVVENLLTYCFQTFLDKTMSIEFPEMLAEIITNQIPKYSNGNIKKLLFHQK

[2] = biological target: T1, Glucocorticoid receptor (Rattus norvegicus); assay: Binding affinity to enhanced YFP tagged rat glucocorticoid receptor (497-795)-LBD expressed in Saccharomyces cerevisiae FY250 cells by measuring increase in fluorescence intensity incubated at 100 uM for 15 hrs by fluorescence microscopy
[3] = biological target: T1, Glucocorticoid receptor (Rattus norvegicus); assay: Binding affinity to enhanced YFP tagged rat glucocorticoid receptor (497-795)-LBD expressed in Saccharomyces cerevisiae FY250 cells by measuring fluorescence changes incubated at 100 uM for 15 hrs by fluorescence spectroscopy

Activity [1] | Activity [2] | Compound | Activity [3]
Dose-dependent effect | Active | C[C@]12C=CC(=O)C=C1CC[C@@H]1[C@@H]2[C@@H](O)C[C@@]2(C)[C@H]1CC[C@]2(O)C(=O)CO | –
– | Active | C[C@H](CCC(=O)Nc1ccccc1)[C@H]1CC[C@H]2[C@@H]3CC[C@@H]4C[C@H](O)CC[C@]4(C)[C@H]3C[C@H](O)[C@]12C | Active

Compound | Activity [1] | Activity [2] | Activity [3]
C[C@H](CCC(=O)O)[C@H]1CC[C@H]2[C@@H]3CC[C@@H]4CCCC[C@]4(C)[C@H]3CC[C@]12C | – | Active | Active
